Here are results for two molecules from patent US20210228523A1, “MODULATORS OF SESTRIN-GATOR2 INTERACTION AND USES THEREOF” (Navitor Pharmaceuticals, Inc., priority 2017, published 2021).

Where “and” joins values, the source holds several entries; their conditions need not be identical. Equal values may be shown once.

In experiment [1] the test system is Male Sprague Dawley rats. The experiment in a line: Female Urine Sniffing Test (FUST). Format: in vivo, rat. The conditions noted are these: Example A, 24 hrs post-dose; for time spent sniffing female urine (FUST): mean±SEM, n=8. As for the experimental part: Behavioral Analysis Using the Female Urine Sniffing Test (FUST): The FUST was conducted according to published procedures (Malkesman, O. et al, Biol Psychiatry 67(9): 864-71 (2010)), 24 hr post-dosing. Briefly, rats were habituated for 60 min to a cotton swab dipped in tap water in their home cage. Next, rats were exposed to a 2nd cotton swab dipped in tap water and 45 min later they were exposed to a 3rd cotton swab infused with fresh rat urine from 11 to 14-week-old female rats in estrus. The total time (s) spent sniffing the cotton-tipped applicator was quantitated over 5 min for each animal.
(§1) Study Design. Thirty-two (32) male Sprague Dawley Male rats weighing between 175 and 200 g were randomized into 4 study groups (n=8/treatment group), following a 5-day acclimation period. On study day 0, rats received a single dose of either saline (Sal) or ketamine (Ket) in Groups 1 and 2, respectively, by intraperitoneal injection (i.p.). The rats in Group 3 and 4 received a single dose of the NV-5138 vehicle (Veh, 0.5% Methylcellulose/0.1% Tween-80) or NV-5138 (160 mg/kg), respectively, by oral gavage. All rats were subjected to the FUST on day 1, 24 hrs after dosing. On day 2, 48 hrs after dosing, the LMA of all rats was measured in an open field. Rats were then fasted for 20 hrs and subjected to the NSFT, 72 hrs post-dose.
Preparation of Test Articles. Ket (Sigma, cat #K1884) was dissolved in Sal at a concentration of 10 mg/mL. A volume of 1 ml/kg of Sal or Ket was injected i.p. for Groups 1 and 2, respectively. NV-5138 (Navitor, lot #06) was prepared by dissolving in Veh (0.5% methylcellulose/0.1% Tween-80) at a concentration of 50 mg/mL. The dosing volume based on the weight of the animal (3.2 mL/kg) of Veh or NV-5138 was administered by oral gavage to study animals in Groups 3 and 4, respectively. Test articles were prepared the day of dosing.

Experiment [2] deals with Male Sprague Dawley rats. The experiment is described as follows: Novelty Suppressed Feeding Test (NSFT) with home cage feeding control. Format: in vivo, rat. As for the experimental part:
Behavioral Analysis Using the Novelty Suppressed Feeding Test (NSFT): The NSFT was conducted as previously described (Warner-Schmidt, J. L. & Duman, R. S. PNAS 104(11): 4647-52 (2007)). Rats were fasted in their home cages for 20 hr and then placed in a Plexiglas open field (76.5 cm×76.5 cm×40 cm) with a small amount of food in the center. Animals were allowed to explore the open field for 8 min and the latency to feed (s) was recorded.
Chronic Unpredictable Stress (CUS) Conditions: Rats were exposed to a variable sequence of 12 unpredictable stressors, preventing habituation as described (Li, N. et al., Biol Psychiatry 69(8): 754-61 (2011)). The following twelve stressors were applied (2 per day, for 25 days): cage rotation, light on, light off, cold stress, isolation, swim stress, food and water deprivation, wet bedding, stroboscope, cage tilt, odor exposure and group housing. The animals in non-stressed (NS) groups were housed normally without the application of external stressors. Both NS and CUS rats were handled and weighed weekly.
as §1
Study Design: Fifty-six (56) male rats weighing between 175 and 200 g were randomized into 4 study groups (n=14/group), following a 5-day acclimation period. On study day minus 20, two groups of rats were subjected to CUS for 25 days and two groups of rats were housed normally serving as the NS group. On the day 21 of the CUS protocol, rats received a single dose of either Veh or NV-5138 (160 mg/kg) by oral gavage (day 0). The SPT and NSFT were performed 24 and 48 hrs post-administration (days 1 and 2), respectively. Upon completion of the behavioral tests, after 25 days of the CUS protocol a second dose of NV-5138 or Veh was administered on day 5 and rats were sacrificed 24 hrs later by conscious decapitation. Crude synaptosomes were prepared from the PFC and the synaptic proteins, GluR1 and PSD95 were quantitated by WB.
Study Design. Twenty (20) male rats weighing between 175 and 200 g were randomized into 3 study groups (n=6-7/group), following a 5-day acclimation period. All rats were surgically implanted with bilateral IT cannulas in the PFC 2 weeks prior to dosing. […] Thirty minutes following the intrathecal infusions, either NV-5138 vehicle (Veh-NV, 0.5% methylcellulose/0.1% Tween-80) or NV-5138 (160 mg/kg) was administered by oral gavage. Each treatment group was assessed at the designated time following oral dosing in FST 24 hrs (day 1) LMA 48 hrs (day 2) and the NSFT 72 hrs (day 3 following a 20 hr period of fasting). LMA was measured to rule out overall changes in generally locomotor activity. The study design is presented in Table 11 with timeline of surgical procedures, test article administration and behavioral tests is provided in FIG. 20
Study Design. Forty-eight (48) male rats weighing between 175 and 200 g were randomized into 6 study groups (n=8/group), following a 5-day acclimation period. A single dose of all test articles was administered on day 0 and the behavioral tests were performed 3, 7 and 10 days later. Groups 1 and 2 were dosed on day 0 with NV-5138 (160 mg/kg by oral gavage) and Ket (10 mg/kg by i.p. injection), respectively and subjected to a FST on day 3. […]

As to `CNC1(c2ccccc2Cl)CCCCC1=O` (centres unmarked) [Ket, ketamine, reference compound], the “time spent sniffing female urine (FUST)” value with Male Sprague Dawley rats [1] (Ket 10 mg/kg i.p. single dose) is 36.5 ± 7.9 s. Also, the “increase in time spent sniffing female urine vs Sal” value in the experiment on Male Sprague Dawley rats [1] (Ket 10 mg/kg i.p. single dose, p<0.05) amounted to 2.1 fold. The “decrease in the latency to feed (NSFT) vs Sal” value in the experiment with Male Sprague Dawley rats [2] (Example A, Ket 10 mg/kg i.p. single dose, 72 hrs post-dose, p<0.01) worked out at 31%. The “NSFT vs Sal” value in the experiment on Male Sprague Dawley rats [2] (Example G, Ket 10 mg/kg i.p. single dose, 10 days post-dose) is recorded as “No significant difference”.

For `CC(C)(C[C@H](N)C(=O)O)C(F)F` [NV-5138], the “time spent sniffing female urine (FUST)” value in the experiment on Male Sprague Dawley rats [1] (NV-5138 160 mg/kg oral single dose) is 33.8 ± 2.9 s. For the same molecule, the “increase in time spent sniffing female urine vs Veh” value in the experiment with Male Sprague Dawley rats [1] (NV-5138 160 mg/kg oral single dose, p<0.01) stood at 2.9 fold. For the same molecule, in the experiment on Male Sprague Dawley rats [2] (Example A, NV-5138 160 mg/kg oral single dose, 72 hrs post-dose, p<0.01), the “decrease in the latency to feed (NSFT) vs Veh” value was 36%. The “NSFT latency to feed” value in the experiment on Male Sprague Dawley rats [2] (Example E, CUS rats, NV-5138 160 mg/kg oral, 48 hrs after treatment, p<0.0001 vs CUS Veh) worked out at 520.1 ± 40.35 s; in the experiment with Male Sprague Dawley rats [2] (Example E, non-stressed (NS) rats, NV-5138 160 mg/kg oral, 48 hrs after treatment, p<0.01 vs Veh) it was 430.6 ± 25.3 s; in the experiment on Male Sprague Dawley rats [2] (Example F, Veh-R IT infusion then NV-5138 160 mg/kg oral, 72 hrs), 510 ± 50 s. The “decrease in NSFT latency to feed vs Veh-R/Veh-NV” value in the experiment with Male Sprague Dawley rats [2] (Example F, Veh-R IT infusion then NV-5138 160 mg/kg oral, 72 hrs, p<0.05, 160 mg/kg) was 46% and 32%. Moreover, the “NSFT latency to feed, R/NV-5138 vs Veh-R/Veh-NV” value in the experiment on Male Sprague Dawley rats [2] (Example F, rapamycin (R, 0.01 nmol) IT infusion into PFC 30 min before NV-5138 160 mg/kg oral, 72 hrs) is recorded as “lack of significant effect on latency to feed”. The “NSFT vs Veh” value with Male Sprague Dawley rats [2] (Example G, NV-5138 160 mg/kg oral single dose, 10 days post-dose) is on record as “No significant difference”. The NSFT entry with Male Sprague Dawley rats [2] (Example I, NV-5138 80 mg/kg oral daily for 7 days, day 9, 72 hrs post-last dose) was “Significant effects”.
